Test results taken from the SangsterLogP compilation.

What was measured:
[1] = method code SF-HPLC, from DOI: 10.1007/bf00269028, PMID: 6488439
[2] = method code SF-HPLC, from DOI: 10.1002/jps.2600750520, PMID: 3735094; conditions: pH 4.0
[3] = method code SF, from DOI: 10.1016/s0045-6535(97)00338-x
[4] = method code SF-AS, from DOI: 10.1016/0378-5173(82)90004-7; conditions: pH 3.0
[5] = method code SF, from DOI: 10.1016/j.jiec.2010.03.003
[6] = not given; remark: listed apart in the source
[7] = method code SF-RC, from DOI: 10.1021/jm901332c, PMID: 19921956; conditions: pH 7.4
[8] = not given; remark: listed apart in the source
[9] = not given; remark: listed apart in the source
[10] = method code SF-HPLC, from DOI: 10.1016/0378-5173(82)90005-9; conditions: pH 3.0
[11] = method code SF, from DOI: 10.1021/js9700917, PMID: 9452977; conditions: pH 5.5
[12] = method code SF, from DOI: 10.1021/jm00378a018, PMID: 6389865; conditions: pH 7.0
[13] = not given; remark: listed apart in the source
[14] = not given; remark: listed apart in the source
[15] = method code SF-GLC, from Boikov, Yu.; Shibaev, V.; Gaidamaka, V.; V'yunov, K. (1989). Study of correlation between extraction characteristics of glycidyl ethers and theri structure. 62(1)177-179.
[16] = method code SF-AS, from Ganga, L. X. J. S., & Zun-Yaob, L. H. W. (2009). Determination of lgKow and QSPR Study on Some Fluorobenzene Derivatives. Jiegou Huaxue, 28(10).
[17] = method code SF-RC, from DOI: 10.1002/ps.2780130506
[18] = method code SF-GLC, from DOI: 10.1016/s0021-9673(01)83612-8; conditions: pH 13.0
[19] = not given; remark: listed apart in the source
[20] = method code SF-GLC, from DOI: 10.1007/bf00343116, PMID: 4026577
[21] = not given; remark: listed apart in the source
[22] = not given; remark: listed apart in the source
[23] = method code SF-AS, from DOI: 10.1007/bf02922495
[24] = method code SF-AS, from DOI: 10.1002/1521-3838(200111)20:4<291::aid-qsar291>3.0.co;2-q
[25] = method code SF-CR+AS, from DOI: 10.1016/s0003-2670(00)84151-3
[26] = method code SF, from DOI: 10.1002/em.2850190108, PMID: 1732104

Compound `Nc1ccn(C2OC(CCl)C(O)C2O)c(=O)n1` (stereo unspecified) has a logP [1] of -1.05.

Compound `O=[N+]([O-])c1ccc(/C=N\O)o1` has a logP of 0.3.

Compound `NC(=S)N/N=C\c1ccco1` has a logP of 1.64.

Compound `CCCCOC(=O)n1cc(F)c(=O)[nH]c1=O` has a logD [2] of 0.89.

`CC(=O)c1cc(F)c(Cl)cc1Cl` gave a logP [3] of 3.4.

Work on `CC1(c2ccccc2)C(=O)NC(=O)NC1=O` yielded a logD [4] of 0.91.

Compound `C=COCCC` has a logP [5] of 2.

In the case of `O=[N+]([O-])c1cccc(O)c1`, the logP [6] is reported as 1.88.

Work on `Cn1cnc2ncnc(F)c21` yielded a logD [7] of -0.62.

In the case of `COc1ccc(N)c([N+](=O)[O-])c1`, the logP [8] is reported as 1.86.

With `Clc1ccc2c(ccc3ccccc32)c1` the logP [9] was 5.16.

In the case of `ClC(Cl)=C(Cl)c1c(Cl)c(Cl)c(Cl)c(Cl)c1Cl`, the logP [9] is reported as 6.29.

Compound `O=C1NC(=O)C2(CC2)C(=O)N1` has a logD [10] of -0.53.

`N#Cc1ccc([N+](=O)[O-])cc1` gave a logP [6] of 1.25.

Work on `CCOC(C)(C)C` yielded a logP [5] of 1.71.

With `NS(=O)(=O)c1ccncn1` the logD [11] was -0.2.

`COC(=O)c1nc(NCC(O)CO)cnc1[N+](=O)[O-]` (stereo unspecified) gave a logD [12] of -0.1.

`CC(C)OC(C)C` showed a logP [5] of 1.94.

`CCCC(O)CC` (stereo unspecified) gave a logP [13] of 1.65.

For `NC(=S)NS(=O)(=O)c1ccc(N)cc1`, the logD [11] was 0.52.

Work on `O=C(O)c1cc(Br)nc(Br)c1` yielded a logP [14] of 2.8.

For `CCCOCC1CO1` (stereo unspecified), the logP [15] was 0.5.

For `COCC1CO1` (stereo unspecified), the logP [15] was 0.03.

In the case of `Fc1cc(F)c(F)cc1F`, the logP [16] is reported as 2.44.

In the case of `CNC(=O)ON=C(C)C`, the logP [17] is reported as -0.13.

For `CCCCCC(C)N` (stereo unspecified), the logD [18] was 2.4.

`CCCCCCN1CC(C(=O)O)CC1=O` (stereo unspecified) gave a logP [19] of 1.6.

Compound `N#CCCCC#N` has a logP [20] of -0.72.

With `Cc1c[nH]c(=O)[nH]c1=O` the logP [1] was -0.57.

`CCCCCCN1CCCC1=O` gave a logP [19] of 2.6.

Compound `COc1ccc(C)cc1N` has a logP [21] of 1.74.

With `CN1CC(C(=O)O)CC1=O` (stereo unspecified) the logP [19] was -1.5.

With `O=C(O)c1cc(Cl)nc(Cl)c1` the logP [14] was 2.6.

In the case of `CCNc1nc(Cl)nc(NC(C)C)n1`, the logP [9] is reported as 2.63.

`CCOC(=O)CC(SP(=S)(OC)OC)C(=O)OCC` (stereo unspecified) showed a logP [22] of 2.18.

With `N#CC(C#N)=Cc1ccco1` the logP [23] was 1.5.

Work on `Cn1cnc2ncnc(Cl)c21` yielded a logD [7] of 0.03.

`N#Cc1ccccc1[N+](=O)[O-]` gave a logP [6] of 1.16.

With `Fc1ccc(F)c(F)c1` the logP [16] was 2.34.

`CC(C)COC(=O)n1cc(F)c(=O)[nH]c1=O` showed a logD [2] of 0.87.

`CC1CCCC(C)C1O` (stereo unspecified) showed a logP [13] of 2.37.

Compound `CCN(CC)c1nc(C)cc(OP(=S)(OC)OC)n1` has a logP [22] of 3.8.

Compound `N#CC(C#N)=Cc1ccc(Cl)o1` has a logP [23] of 2.17.

With `Cn1cnc2c(F)ncnc21` the logD [7] was 0.11.

With `S=c1[nH]nc(-c2ccccc2Cl)o1` the logP [24] was 3.36.

`Nc1ccc(Sc2ccccc2)cc1` showed a logP [21] of 2.18.

`O=C(O)c1nc(Cl)ccc1Cl` showed a logP [14] of 1.06.

`C=CCC1(C)C(=O)NC(=O)NC1=O` gave a logD [4] of 0.36.

Compound `S=c1[nH]nc(-c2ccc(Cl)cc2)o1` has a logP [24] of 3.66.

In the case of `CCOC(=O)c1cc(Cl)nc(Cl)c1`, the logP [14] is reported as 3.6.

Work on `CCCCCCC(C)O` (stereo unspecified) yielded a logP [13] of 2.9.

`Cc1ccc(C(N)=S)cc1` gave a logP [25] of 2.01.

Compound `CNC1CCc2ccccc2C1` (stereo unspecified) has a logD [18] of 2.38.

`NC(=S)c1ccc(Cl)cc1` gave a logP [25] of 2.4.

Compound `C[C@@H]1CCCC[C@H]1O` has a logP [13] of 1.82.

Work on `O=[N+]([O-])c1cc([N+](=O)[O-])c2ccccc2c1` yielded a logP [26] of 2.83.
